Patent publication US20190328763A1, “A LIPID NANOPARTICLE FOR CARRYING ANTISENSE OLIGONUCLEOTIDES INHIBITING BCL-2 AND METHOD FOR PREPARING THE SAME” (NANJING LUYE PHARMACEUTICAL CO., LTD., priority 2016, published 2019)
Read-outs that look alike come from different tables or passages of the source. d = 2'-deoxy (DNA); m = 2'-O-methyl

Tests used:
Type in all cases: cell-based
bcl-2 messenger RNA [1] = assay: Gene level (Bcl-2) G3139 regulation experiment, Real-Time-PCR, KB cancer cells; conditions: for Ratio (bcl-2/β-actin): 1 μM G3139, 4 h incubation then 48 h culture, control group 100%
Procedure: (§1) (1) We will place cancer cells, such as A549 cells, KB cells, and LNCaP prostate cancer cells in 6-well plates and make the cells grow in an RPMI1640 culture solution containing 10% fetal calf serum to allow the cells to grow overnight to achieve a plating rate of 80%.
(§2) (3) After incubation in an environment of 37 degrees and 5% CO2 for 4 h, the cells will be transferred to a fresh culture solution and the culture will last for 48 h. Cells were collected, lysed, and extracted RNA according to standard methods.
(§3) (4) We will analyze the levels of bcl-2 messenger RNA in each group with the Real-Time-PCR technology, and we can finally quantify the expression of bcl-2 after treatment in each group according to the standard methods of reagent suppliers.
By designing different sample groups, we regulate the levels of bcl-2 in KB cells.

bcl-2 messenger RNA [2] = assay: Gene level (Bcl-2) G3139 regulation experiment, Real-Time-PCR, A549 lung cancer cells; conditions: for Ratio (bcl-2/β-actin): 1 μM G3139, 4 h incubation then 48 h culture, control group 100%
Procedure: as §1, §2, §3

bcl-2 messenger RNA [3] = assay: Gene level (Bcl-2) G3139 regulation experiment, Real-Time-PCR, LNCaP prostate cancer cells; conditions: for Ratio (bcl-2/β-actin): 1 μM G3139, 4 h incubation then 48 h culture, control group 100%
Procedure: as §1, §2, §3

A549 cells = assay: A549 lung cancer cytotoxicity test (MTS); conditions: Homo sapiens, paclitaxel 1 nmol/L-100 μmol/L, antisense oligonucleotide fixed 10 μmol/L
Procedure: (1) We placed A549 cells in 96-well plates, and made the cells grow in an RPMI1640 culture solution containing 10% fetal calf serum to allow the cells to grow overnight to achieve a plating rate of 60-70%.
(2) A toxicity test of multiple paclitaxel (PTX) concentration gradients (1 nmol/L-100 μmol/L) and antisense oligonucleotide concentrations (10 μmol/L) in each group was conducted with each concentration group on the second day, and each concentration group was incubated in a 37 degree and 5% CO2 environment.
(3) 20 ul of MTS reagent (a novel tetrazole compound) was added at different time points 24 h, 48 h, and 72 h, and the detection was performed at a wavelength of 490 nm and the results were as shown in the following table: […]

Compound: 5′-TCT CCC AGC GTG CGC CAT-3′ (antisense TCTCCCAGCGTGCGCCAT; DNA, all phosphorothioate, methylation of C not given here) [free G3139]
- Ratio (bcl-2/β-actin) (bcl-2 messenger RNA [1]): 95.31%
- Ratio (bcl-2/β-actin) (bcl-2 messenger RNA [2]): 88.75%
- Ratio (bcl-2/β-actin) (bcl-2 messenger RNA [3]): 93.15%

Compound: 5′-UCU CCC AGC GTG CGC CAU-3′ (antisense UCUCCCAGCGTGCGCCAU; sugars from the 5' end m3 d12 m3, all phosphorothioate, methylation of C not given here) [free 2′-O-Me modified G3139]
- gene-level down-regulation of bcl-2 (bcl-2 messenger RNA [1]; 1 μM G3139): 10.96%
- Ratio (bcl-2/β-actin) (bcl-2 messenger RNA [1]): 89.04%
- gene-level down-regulation of bcl-2 (bcl-2 messenger RNA [2]; 1 μM G3139): 6.71%
- Ratio (bcl-2/β-actin) (bcl-2 messenger RNA [2]): 93.29%
- gene-level down-regulation of bcl-2 (bcl-2 messenger RNA [3]; 1 μM G3139): 5.11%
- Ratio (bcl-2/β-actin) (bcl-2 messenger RNA [3]): 94.89%

Compound: CC(=O)O[C@H]1C(=O)[C@@]2(C)[C@H]([C@H](OC(=O)c3ccccc3)[C@]3(O)C[C@H](OC(=O)[C@H](O)[C@@H](NC(=O)c4ccccc4)c4ccccc4)C(C)=C1C3(C)C)[C@]1(OC(C)=O)CO[C@@H]1C[C@@H]2O [Paclitaxel (PTX) alone, Paclitaxel]
- IC50 (A549 cells; 24 h, read-out: IC50 after 24 h): 75.6 nM
- IC50 (A549 cells; 48 h, read-out: IC50 after 48 h): 28.5 nM
- IC50 (A549 cells; 72 h, read-out: IC50 after 72 h): 17.9 nM
